Experimental data taken from patent publication US12453708B2, “Aminonaphthoquinone compounds for treatment and/or prevention of fibrosis diseases” (CALGENT BIOTECHNOLOGY CO., LTD., priority 2015, dated 2025).

Key:
[1] = test system: TGF-β-induced fibronectin expression in WI-38 cells; experiment: TGF-β-induced fibronectin expression in WI-38 cells (Western blot, immunofluorescence); format: cell-based, human; conditions: WI-38 lung fibroblasts, 0.3, 1, 3 or 10 μM for 30 min before and during incubation with TGF-β (10 ng/mL)
Procedure: FIGS. 6 (A), (B) and (C) show the effect of L056 on TGF-β-induced fibronectin expression in WI-38 cells. WI-38 lung fibroblasts were incubated with different concentrations of L056 (0.3, 1, 3 or 10 μM) for 30 min before and during incubation for 2 h with TGF-β (10 ng/mL). […] (A), Western blot plot; (B), Quantitative assay of Western blot; (C), Immunofluorescence plot. WI-38 cells, a normal human embryonic lung fibroblast cell line, were obtained from American Type Culture Collection (Manassas, VA). Cells were grown in MEM nutrient mixture, containing 10% FCS, 2 mM L-glutamine, 0.1 mM NEAA, 1 mM sodium pyruvate, 50 U/ml penicillin G, and 100 µg/ml streptomycin, in a humidified 37° C. incubator with 5% CO2 Cells were used between passages 18 and 30 for all experiments. After reaching confluence, cells were seeded onto 6-cm dishes for immunoblotting. Western blot analyses were performed as described previously (Chen B C, Chang Y S, Kang J C, Hsu M J, Sheu J R, Chen T L, et al. Peptidoglycan induces nuclear factor-kappaB activation and cyclooxygenase-2 expression via Ras, Raf-1, and ERK in RAW 264.7 macrophages. J Biol Chem 2004; 279:20889-97). […] The immunoreactivity was detected using enhanced chemiluminescence (ECL) following the manufacturer's instructions. Quantitative data were obtained using a computing densitometer with scientific imaging systems (Kodak, Rochester, NY). […]

WI-38 lung fibroblasts = experiment: Cell viability test (MTT-assay) in WI-38 cells; format: cell-based, human; conditions: 0.3, 1, 3 or 10 μM for 2 hours
Procedure: WI-38 cells, a normal human embryonic lung fibroblast cell line, were obtained from American Type Culture Collection (Manassas, VA). Cells were grown in MEM nutrient mixture, containing 10% FCS, 2 mM L-glutamine, 0.1 mM NEAA, 1 mM sodium pyruvate, 50 U/ml penicillin G, and 100 µg/ml streptomycin, in a humidified 37° C. incubator with 5% CO2 Cells were used between passages 18 and 30 for all experiments. After reaching confluence, cells were seeded onto 6-cm dishes for immunoblotting. WI-38 lung fibroblasts were incubated with different concentrations of MPTOL056 (0.3, 1, 3 or 10 μM) for 2 hours before MTT-assay.

[2] = test system: BLM-induced lung fibrosis in mice; experiment: Bleomycin (BLM)-induced lung fibrosis mice model; format: in vivo, C57BL/6JNarl mice; conditions: for fibrosis score, Mean ± SEM: H&E histology day 39
Procedure: FIGS. 8 (A) and (B) show the effect of L056 effect on fibrosis score of BLM-induced lung fibrosis in mice. C57BL/6 mice (8 weeks) were treated with bleomycin (BLM, 0.05 U/50 μl) or PBS (50 μl) by endotracheal administration. […] On day 39, the mice were sacrificed and, the histologic analysis of lung tissue was performed by hematoxylin-eosin (H&E) staining (original magnification, x100). […] (A), Histology fibrosis score plot; (B), H&E staining plot.
FIG. 9 (A) to (D) show the inhibitory effects on pro-fibrogenic mediators, collagen, CTGF, fibronectin and […], respectively. (A), H&E staining plot for collagen; (B), H&E staining plot for CTGF; (C), H&E staining plot for fibronectin; (D), H&E staining plot for α-SMA.
C57BL/6JNarl mice (8 weeks) were treated with bleomycin (BLM, 0.05 U/50 μl) or PBS (50 μl) by endotracheal administration. […] On day 39, the mice were sacrificed, and the histologic analysis of lung tissue was performed by hematoxylin-eosin (H&E) staining (original magnification, x100).

[3] = test system: CCl4-induced liver fibrosis in mice; experiment: CCl4-induced liver fibrosis in mice (therapeutic model); format: in vivo, C57BL/6JNarl mice; conditions: for fibrosis score, Mean ± SEM: day 43
Procedure: (A) sirius red stain; (B), the inhibition of MPTOL056 on CCl4-induced liver fibrosis. […] C57BL/6JNarl mice (8 weeks) were treated with CCl4 (1 μl/μg/BW, q.w.) or PBS (1 μl/μg/BW, q.w.) by i.p. injection for 6 weeks. MPTOL056 (25, 50 and 100 mg/kg/day, q.d.) and silymarin (200 mg/kg/day, q.d.) were administered orally to CCl4-injected mice from 2 weeks to 6 weeks. On day 43, the mice were sacrificed, and the α-SMA analysis of liver tissue was performed by IHC staining (original magnification, x100) (see FIG. 11). […]

[4] = BLM mice, 25 mg (mg/kg/day, q.d., oral, days 10 to 38)
[5] = BLM mice, 50 mg (mg/kg/day, q.d., oral, days 10 to 38)
[6] = BLM mice, 100 mg (mg/kg/day, q.d., oral, days 10 to 38)
[7] = CCl4 mice, 25 mg (mg/kg/day, q.d., oral, weeks 2 to 6)
[8] = CCl4 mice, 50 mg (mg/kg/day, q.d., oral, weeks 2 to 6)
[9] = CCl4 mice, 100 mg (mg/kg/day, q.d., oral, weeks 2 to 6)

O=C(Nc1ccncc1)c1ccc(CNC2=C(Cl)C(=O)c3ccccc3C2=O)cc1 [Example L056, 4-(((3-chloro-1,4-dioxo-1,4-dihydronaphthalen-2-yl)amino)methyl)-N-(pyridin-4-yl)benzamide]
TGF-β-induced fibronectin expression [1]: significantly inhibited
cell viability (WI-38 lung fibroblasts): did not affect cell viability
Efficacy % (reduction of fibrosis score) [2, 4]: 50.94%
fibrosis score, Mean ± SEM [2, 4]: 3.27 ± 0.03
Efficacy % (reduction of fibrosis score) [2, 5]: 83.90%
fibrosis score, Mean ± SEM [2, 5]: 2.03 ± 0.21
Efficacy % (reduction of fibrosis score) [2, 6]: 67.38%
fibrosis score, Mean ± SEM [2, 6]: 2.65 ± 0.17
efficacy in the inhibition compared with PBS control ([2]; BLM mice, FIG. 8(B)): significantly higher than the PBS control
pro-fibrogenic mediators expression (collagen, CTGF, fibronectin, α-SMA) in lung ([2]; bleomycin-induced mice lung fibrosis model, FIG. 9): inhibited
inhibition of BLM-induced lung fibrosis (in words) ([2]; mice, 25, 50, 100 mg/kg/day oral, FIG. 8(A)): inhibits BLM-induced lung fibrosis in a dose-dependent manner
Efficacy % (reduction of fibrosis score) [3, 7]: 45.00%
fibrosis score, Mean ± SEM [3, 7]: 2.40 ± 0.53
Efficacy % (reduction of fibrosis score) [3, 8]: 46.67%
fibrosis score, Mean ± SEM [3, 8]: 2.35 ± 0.25
Efficacy % (reduction of fibrosis score) [3, 9]: 68.33%
fibrosis score, Mean ± SEM [3, 9]: 1.70 ± 0.18
efficacy in inhibition compared with silymarin ([3]; CCl4 mice, silymarin 200 mg/kg/day, FIG. 10(B)): higher than silymarin
inhibition of CCl4-induced liver fibrosis (in words) ([3]; mice, 25, 50 and 100 mg/kg/day oral, FIG. 10(B)): dose-dependent
